Measured values as given in patent US4731470A, “[(5,6-dichloro-3-oxo-2,9a-alkano-2,3,9,9a-tetrahydro-1H-fluoren-7-yl)oxy] alkanoic acids and alkanimidamides” (Merck & Co., Inc., priority 1986, dated 1988).

How the values were obtained:
[1] = test system: cat cerebrocortical tissue slices; assay: In vitro cat cerebrocortical tissue slice assay (HCO3^- -stimulated tissue swelling); format: cell-based; settings: Felis catus, read-out: percentage inhibition of tissue swelling (% Inhib.)
Protocol: Using the in vitro cat cerebrocortical tissue slice assay, described in Example 1, compounds of the present invention can be tested for activity. This test provides the principal in vitro evaluation and consists of a determination of concentration vs. response curve. The addition of HCO3^- to isotonic, K^+ -rich saline-glucose incubation media is known to specifically stimulate the transport of Cl^- coupled with Na^+ and an osmotic equivalent of water in incubating slices of mammalian cerebral cortex. […] After addition of drug to the incubation media, detailed drug concentration-response curves are then obtained. The data are expressed as percent HCO3^- -stimulated swelling vs. drug concentration, from which the concentration of drug providing 50% inhibition of HCO3^- -stimulated swelling (I50 in molarity) is interpolated.
Adult cats of 2-3 kg body weight are employed in tissue slice studies. Prior to sacrifice, the animals are anesthetized with ketamine hydrochloride (Ketaset), 10 mg/kg intramuscularly. Eight (three control, five experimental) pial surface cerebrocortical tissue slices (0.5-mm thick; approximately 150 mg initial fresh weight) are cut successively with a calibrated Stadie-Riggs fresh tissue microtome without moistening and weighed successively on a torsion balance. During the slice preparation all operations except weighing are confined to a humid chamber. Each slice is rapidly placed in an individual Warburg flask containing 2 ml of incubation medium at room temperature. The basic composition of the incubation media, in millimoles per liter, is as follows: glucose, 10; CaCl2, 1.3; MgSO4, 1.2; KHSO4, 1.2; Hepes (N-2-hydroxyethylpiperazine-N'-2-ethanesulfonic acid, titrated with NaOH to pH 7.4), 20. Except when adding HCO3^-, the osmolarity of the media is maintained isosmotic (approximately 285 mOsm/L) by reciprocal changes of Na^+ or K^+ to achieve a concentration of K^+ of 27 mM. The basic medium was saturated with oxygen by bubbling pure oxygen through the solution for 30 minutes before use. […]
Following the 60-minute incubation period, tissue slices are separated from incubation medium by filtration, reweighed, and homogenized in 1N HClO4 (10% w/v) for electrolyte analysis. […] Control slice swelling is expressed as microliters per gram initial preswelling fresh weight. The effectiveness of an inhibitor at a given concentration is measured by the amount of HCO3^- -stimulated swelling that occurred in its presence, computed as a percent of the maximum possible. Tissue and media Na^+ and K^+ levels are determined by emission flame photometry with Li^+ internal standard; Cl^- levels are determined by amperometric titration. Tissue viability during incubation is monitored by manometry.

astroglial edema = settings: cited from earlier work
[2] = test system: animals receiving experimental in vivo head injury; settings: cited from earlier work
[3] = test system: clinical cases of head injury; settings: cited from earlier work

Structure (SMILES) | inhibition at 1 µM ([1]; conc. 10^-6 M) [%] | inhibition at 0.1 µM ([1]; conc. 10^-7 M) [%] | inhibition at 0.01 µM ([1]; conc. 10^-8 M) [%] | inhibition at 0.001 µM ([1]; conc. 10^-9 M) [%] | activity in in vitro assays (astroglial edema) | activity in in vivo assays [2] | reducing mortality in clinical cases of head injury [3]
O=C(O)COc1cc2c(c(Cl)c1Cl)C1=CC(=O)C3CCCC1(C2)C3 (racemic) [Example 2, [(5,6-Dichloro-3-oxo-2,9a-propano-2,3,9,9a-tetrahydro-1H-fluoren-7-yl)oxy]acetic acid] | 81 | 54 | 29 | 10 | – | – | –
C=C(CC)C(=O)c1ccc(OCC(=O)O)c(Cl)c1Cl [ethacrynic acid] | – | – | – | – | exhibited activity | exhibited activity | effective in reducing mortality
